According to a melting point compilation (Tetko et al.; mined from patent text by program, amines drawn as free bases though some values may be those of a salt):

Compound | melting point
O=S(=O)(c1ccc(Oc2ccccc2)cc1)c1cccc(S(=O)(=O)c2ccc(Oc3ccccc3)cc2)c1 | 70 to 75 °C
Cc1[nH]cnc1/C=C1\CCc2c(c3ccc(F)cc3n2C)C1=O | 290 to 295 °C
CCCCn1c(=Nc2ccccc2)sc2ncccc2c1=O | 68 to 69 °C
CS(=O)(=O)c1ccc(-c2cnn(Cc3cc4ccccc4s3)c(=O)c2-c2ccc(F)cc2)cc1 | 93 to 96 °C
NC(=O)c1nc(-c2ccncc2)nc2c1NC(=O)CN2c1ccccc1 | 298 to 304 °C
Oc1c(Br)cc(-c2c3ccccc3c(Cl)c3sc4ccccc4c23)cc1Br | 222 to 223 °C
CN(C)C(=S)SSCCSSC(=S)N(C)C | 142 to 143 °C
COc1ccc([N+](=O)[O-])c(C#N)c1CBr | 137 to 138 °C
CC1Cc2c(cc(C(C)(C)C)c(O)c2C(C)(C)C)S1 (stereo not drawn) | 96.7 °C
CCS(=O)(=O)NC(=O)N1CC1C#N (stereo not drawn) | 70 to 73 °C
Cc1cc(OC(F)F)ccc1NC(=O)c1cccc(N)c1C(=O)NC(C)C | 148 to 149 °C
COC(=O)C1=C(C)Nc2nccn2C1c1cccc(C(C)=O)c1 (stereo not drawn) | 227 to 229 °C
CCc1cc2nc(N)c(-c3ccccc3)cc2c(CC)n1 | 110 to 112 °C
CN1C(C)(C)CC(Nc2c([O-])[c+](NC3CC(C)(C)N(C)C(C)(C)C3)[c+]2[O-])CC1(C)C | > 340 °C
C=CCNC(=O)n1nc(NC)n(C)c1=O | 136 to 137 °C
O=c1oc2ccccc2c(O)c1C1CC(c2ccc(Oc3ccc(-c4ccc(Cl)cc4)cc3)cc2)Cc2ccccc21 (stereo not drawn) | 132 °C
O=C1c2ccccc2C(=O)N1CCc1c[nH]c(=O)[nH]c1=O | 324 to 327 °C
Cc1cn(-c2cccc(C3=Nc4ccc(-c5ccccc5F)cc4NC(=O)C3)c2)c(C)n1 | 92 °C
Cc1ccc2c(n1)Nc1ccccc1N(C)C2=O | 192 to 194 °C

Compound | melting point
Cc1ccccc1NC(=O)CI | 145 to 146 °C
O=C(c1ccc(-n2ccc(C(F)(F)F)n2)cc1C(F)(F)F)N1Cc2cccnc2Nc2ccccc21 | 127 to 129 °C
COc1ccc([N+](=O)[O-])c(NC(=O)OC(C)(C)C)c1 | 112 to 114 °C
Oc1ccc(-c2cocn2)cc1 | 148 °C
CC(C)Cn1c(CNC(=O)OC(C)(C)C)c(-c2ccc(F)cc2)c2cc(/C=C/C(=O)O)ccc2c1=O | 201 to 202 °C
COC(=O)c1cc(=O)c2cc(OC)cc(N)c2o1 | 145 to 147 °C
COc1cc(OC)c2c(=O)[nH]c(-c3ccc(OCCNC(C)C)c(-c4ccc(S(C)=O)cc4)n3)nc2c1 (stereo not drawn) | 93 to 95 °C
COc1ccc(Br)c(C=O)c1OC | 92 to 93 °C
CCCn1c(=O)[nH]c(=O)c2[nH]c(/C=C/c3ccccc3)nc21 | > 295 °C
CCOC(=O)Cn1nc(-c2cc(C(C)(C)C)c(O)c(C(C)(C)C)c2)c2cccnc21 | 117 to 120 °C
Cc1ccc2c(c1)[C@H]1Cc3ccccc3[C@H]1N2C (relative stereo) | 54 °C
COC(=O)NNC(=O)Nc1ccccc1 | 154 to 155 °C
CN1CCN(c2nc3sc4c(NCc5ccccn5)ncnc4c3c3c2COC(C)(C)C3)CC1 | 218 to 219 °C
COC(=O)NC(=Nc1cc(OS(=O)(=O)c2cccc(C(F)(F)F)c2)ccc1NC(N)=O)NC(=O)OC | 131 °C
Cc1cc(F)ccc1-c1c(O)c(C)c(-c2ccccn2)oc1=O | 123 to 125 °C
Nc1ccc(N2CCOC2=O)c(Cl)c1 | 151 to 153 °C
CCOC(=O)c1cn(C(C)(C)C)c2nc(N3CC[C@H](N)C3)c(F)cc2c1=O | 255 °C
O=c1ncc(Cl)cn1CCCl | 167 to 168 °C
C=CCN1C2CCC1C1CCC2N1C(c1ccc(C(=O)N2CCCCC2)cc1)c1cccc(OC)c1 (stereo not drawn) | 134 to 136 °C

Compound | melting point
COCOc1ccc(CCCO)c(Oc2ncc(C(F)(F)F)cc2Cl)c1 | 92.5 to 93.5 °C
O=c1nc(NO)ccn1C1OC(CO)C(O)C1O (stereo not drawn) | 173 to 176 °C
CCOC(=O)C(C)(C)n1c(=O)[nH]c2ccc([N+](=O)[O-])cc2c1=O | 184 to 185 °C
COc1ccc([N+](=O)[O-])c2c1C(=O)CCC2 | 65 to 71 °C
CCC(=O)N1C(=O)C2C=CC1C2 (stereo not drawn) | 54 to 56 °C
Cn1cc(O)c(=O)c2cc(F)c(F)cc21 | 264 to 265 °C
Cc1onc(OCC(=O)NCCO[N+](=O)[O-])c1Br | 87 to 88 °C
CCC1(c2cccs2)OCC(=O)Nc2ccc(-c3coc(C#N)c3)cc21 (stereo not drawn) | 99 to 100 °C
CC[C@@]12CCCN1[C@@H](C(Cl)(Cl)Cl)OC2=O | 76 to 77 °C
Cc1c(NC(=O)CC(C)(C)C)c(C)c2c(c1-c1cccnc1)OCC2c1ccc(C(C)C)cc1 (stereo not drawn) | 142 to 144 °C
O=C(N[C@@H](CCO)C(=O)O)OCc1ccccc1 | 125 to 128 °C
COc1cccc2cc(C)c(C)nc12 | 138 to 139 °C
N#Cc1cnn2c1NCCC2c1cccc(F)c1 (stereo not drawn) | 146 to 148 °C
CC1(C)OC(C(F)(F)F)Nc2ccc(-c3cccc(Cl)c3)cc21 (stereo not drawn) | 108 to 109 °C
Cc1cccc(C)c1-n1cnc(NCc2ccccn2)nc1=O | 165 to 166 °C
COc1cc2cc3c(=O)c(C#N)c[nH]c3cc2cc1OCc1ccccc1 | > 300 °C
CCCn1c(CCO)nc(C(C)C)c1Sc1cc(Cl)cc(Cl)c1 | 88 to 89 °C
COCCCOc1cc(CC(CC(NC(=O)OC(C)(C)C)C2CC(C)C(=O)O2)C(C)C)ccc1OC (stereo not drawn) | 86 to 87 °C

Results, then the molecule that gave them:

melting point | Compound
149 to 150 °C | CC#Cc1c(-c2ccc(S(C)(=O)=O)cc2)cnn(-c2ccc(F)c(F)c2)c1=O
100 to 102 °C | Cc1ccc(C(Cl)=NOS(C)(=O)=O)cc1
111 to 114 °C | Fc1ccc(C2=CCC(N3CCN(Cc4ccc5ccccc5n4)CC3)CC2)cc1 (stereo not drawn)
200 to 205 °C | Cn1ccc2cc(N3Cc4ccc(OC(F)(F)C(F)Cl)cc4C3=O)ccc21 (stereo not drawn)
200 to 202 °C | CC(C)Oc1ccc(C=C(C=O)C(C=O)=Cc2ccc(OC(C)C)cc2)cc1
58 to 59 °C | CCOC(=O)c1ccccc1C(=O)c1ccc2c(c1)C(C)(C)CCC2(C)C
164 to 167 °C | CN(C)c1sc2cc(OCc3ccccc3)ccc2c1C(=O)c1ccc(F)c(C(F)(F)F)c1
148 to 152 °C | COCCN1CCC(c2nc3cc(-c4ccc(-n5cnnn5)cc4F)ccc3o2)CC1
162 to 164 °C | COc1ccc(CCc2ccc(NC(=O)c3ccc(C)cc3O)cc2)cc1OC
265 to 268 °C | COc1ccc(-c2[nH]c3ncnc(Nc4cccc(Cl)c4)c3c2C)cc1
103 to 105 °C | Cc1ccccc1NC(=O)Nc1ccc(CC(=O)N2CCN(C(C)C(=O)O)C(=O)C2Cc2ccccc2)cc1 (stereo not drawn)
80 to 85 °C | CCCCc1nn2cccc(C(=O)OC)c2c1Cc1ccc(Br)cc1
100 to 103 °C | O=C(O)C(CC1CCCCC1)c1ccc(OCc2ccccn2)cc1 (stereo not drawn)
189 to 190 °C | CC1CC(=O)NN=C1c1ccc(NC(=O)C2(Cl)CC2)cc1 (stereo not drawn)
131 °C | COC(=O)C(C)(C)OCc1cc2nc(Cl)ccc2n1S(=O)(=O)c1ccc2c(c1)OCO2
78 to 82 °C | CCCC(=O)c1ccc(OCC(=O)OC)cc1
236 °C | CN1CCN(c2ccc(C(=O)N[C@H]3CC[C@H](CCN4CCN(c5nccc6c5CCO6)CC4)CC3)cc2)CC1
144 to 146 °C | COc1cc(C(=O)O)ccc1-c1ccc(-c2ccccc2)c(-c2ccc3c(c2)C(C)(C)CCC3(C)C)c1
145 to 146 °C | Clc1ccc(N2CCN(Cc3cn4cc(Cl)ccc4n3)CC2)cc1
148 °C | Clc1ccc(-c2nc(CCCCCCc3nnn[nH]3)oc2-c2ccc(Cl)cc2)cc1
183 to 185 °C | CC1(C)CCN(C(=O)Nc2cccnc2)c2cc(C#N)ccc21

melting point | Compound
202 to 205 °C | CCCCc1nc(Cl)c(CO)n1Cc1ccc(-c2ccccc2-c2nc(=O)o[nH]2)cc1
124 to 133 °C | CCCNC(=O)CCCCOc1ccc2c(c1)CCCN2C1CC(C)N(C(=O)c2cc(OC)c(OC)c(OC)c2)c2ccccc21 (stereo not drawn)
57 to 58 °C | COc1cc(C(C)=O)ccc1OCCCCCCl
126 to 129 °C | CC(=O)NC(C)(C)c1ccc(CO)cc1
211 to 214 °C | CC(C)=NNc1cc2c(nn1)CCN(C(=O)c1ccc(Cl)cc1Cl)C2
105 to 106 °C | COc1ccc(C(=O)N2CCN(CCc3ccc(Cl)cc3)CC2)cc1
110 to 111 °C | Cc1cc(OCc2nc3ccccc3s2)ccc1N
138 to 139 °C | O=C(CN1CCCCC1=O)N1CCC(C2c3ncc(Br)cc3CCc3cc(Cl)cc(Br)c32)CC1 (single isomer, unassigned; (+))
126 to 128 °C | CCc1ccccc1OS(=O)(=O)c1ccc(N2CCN(C)C2=O)cc1
160 °C | COc1cccc(Oc2ccc3ccc(N)nc3n2)c1
155 to 156 °C | CC(=O)Nc1ccc2c(c1)C(=O)N(CCO)CO2
140 °C | Cc1nc2scc(C)n2c(=O)c1CCN1CCC(C2(c3ccc(F)cc3)OCCO2)CC1
63 to 66 °C | FC(F)(F)c1ccc(Oc2ccc(OCc3ccccc3)cc2)c(Cl)c1
105 to 109 °C | CCCc1c(OCCCC/C=C/c2ccc(C(=O)c3cccc(C(=O)O)c3)cc2CCC(=O)O)ccc2c1OCCC2=O
201 to 206 °C | COC(=O)c1nc(-c2ccc(Cl)cc2F)cc(NC(C)=O)c1O
134 to 137 °C | CCc1cccc(CC)c1NC(=O)c1c2n(c(C)cc1=O)CCCC2
109 to 110 °C | CCOC(=O)c1ccc(NCCCCCCOc2ccc3ccccc3c2)cc1
86 to 87 °C | C/C=C(\C(=O)N(CC)CC)c1cc(OC)c(O)c2c(Cc3ccccc3)cccc12
214 to 218 °C | Cc1ccc(-c2ccc(C(=O)Nc3cc4ncc(CN5CCCC5)cc4cc3C)cn2)cc1
73 °C | COc1ccc(CN(CCN(C)CCCCCCNC(=C[N+](=O)[O-])NCCCOc2cccc(CN3CCCCC3)c2)c2ccccn2)cc1
129 to 131 °C | CCNc1cccnc1N1CCN(C(=O)c2ccc(C(=O)NCc3ccccn3)cn2)CC1
